In ChEMBL document CHEMBL1156829 (Proc Natl Acad Sci U S A, 2008):

Experiments:
[1] = tested on: Plasmodium falciparum; assay: NOVARTIS: Inhibition of Plasmodium falciparum 3D7 (drug-susceptible) proliferation in erythrocyte-based infection assay; format: functional, organism-based; conditions: Plasmodium falciparum, 3D7
[2] = NOVARTIS: Cytotoxicity against human hepatocellular carcinoma cell line (Huh7); format: toxicity, cell-based, Huh-7; conditions: Huh7 cells (hepatocellular carcinoma cell line)
[3] = tested on: Plasmodium falciparum; assay: NOVARTIS: Inhibition of Plasmodium falciparum W2 (drug-resistant) proliferation in erythrocyte-based infection assay; format: functional, organism-based; conditions: Plasmodium falciparum, W2; read-out: EC50

Structure (SMILES)	EC50 [1]	CC50 [2]	EC50 [3]
CC(=O)Nc1ccc(N2C(=O)CSC2c2ccc(Br)cc2)cc1 (stereo not given)	2.33 µM	> 100 µM	0.865 µM
Cc1ccc(CC(=O)Nc2ccc(I)cc2)cc1	> 11.2 µM	> 100 µM	> 11.2 µM
CCCCNC(=O)c1ccc2c(c1)N=C(c1cccc(OCC)c1)N(CCCN1CCCC1=O)C2	> 0.752 µM	> 10 µM	> 1.25 µM
CCC(C)NC(=O)c1cc(NC(=O)/C=C/c2ccc([N+](=O)[O-])cc2)ccc1N1CCN(c2ccccc2OC)CC1 (stereo not given)	> 1.25 µM	5.55 µM	0.0543 µM
CC1(C)C(=O)C2(CCCCC2)C(=O)OC1/C=C/c1ccccc1 (stereo not given)	> 1.25 µM	> 10 µM	0.0123 µM
CCN(CC)S(=O)(=O)c1cc(S(=O)(=O)c2ccc(Cl)c(S(=O)(=O)N(CC)CC)c2)ccc1Cl	> 0.927 µM	> 10 µM	> 0.278 µM
NC(=O)CN1CC(O)CC1=O (stereo not given) [OXIRACETAM]	5.96 µM	57.5 µM	6.22 µM
CCOC(=O)c1c(C)nc2c(c1C)c(=O)oc1ccccc12	> 12.5 µM	> 100 µM	0.0705 µM
COc1ccc2c(c1)C(C)=CC(C)(C)N2C(=O)CSc1nnc(-c2ccc(C)cc2)o1	0.467 µM	> 10 µM	> 1.25 µM
CC(=O)N1c2ccc([N+](=O)[O-])cc2C(C)(c2ccccc2)CC1(C)C (stereo not given)	1.1 µM	> 100 µM	0.0612 µM
CCOc1ccc2cc(C#N)c(SCC(=O)N3CC(=O)Nc4ccccc43)nc2c1	> 1.11 µM	> 10 µM	> 1.25 µM
CN1CCCN(C(=O)C2CC23CCN(Cc2ccc(N(C)c4ccccc4)cc2)CC3)CC1 (stereo not given)	1.32 µM	20.8 µM	2.58 µM
CCOCCCNC(=O)C1CCCN(S(=O)(=O)c2ccc(C)cc2)C1 (stereo not given)	> 0.659 µM	> 10 µM	> 0.73 µM
COc1cc(C=NNc2nc3ccccc3[nH]2)cc(OC)c1OC	0.176 µM	87.5 µM	0.339 µM
Cc1nc2c(C)cccc2c(O)c1CC=C(Cl)Cl	1.11 µM	> 100 µM	0.609 µM
CCOC(=O)C1=C(C)NC2=C(C(=O)CC(c3ccc(OC)c(OC)c3)C2)C1c1ccc(Cl)cc1Cl (stereo not given)	0.0254 µM	> 100 µM	0.0116 µM
CCOC(=O)c1ccc(N(C(=O)CSCC(=O)Nc2cc(C)on2)C(C(=O)NC2CCCCC2)c2ccc(O)c(O)c2)cc1 (stereo not given)	> 0.316 µM	> 10 µM	> 1.25 µM
COc1cc(OC)cc(C(=O)NCc2n[nH]c(=S)n2-c2cccc(Cl)c2)c1	0.565 µM	> 100 µM	0.45 µM
C/C=C1/C[C@H]2[C@@H](OC)Nc3cc(O)c(OC)cc3C(=O)N2C1	1.03 µM	8.49 µM	0.875 µM
O=C(NC1CC1)c1ccc(OC2CCN(CC3CCCCC3)CC2)c(Cl)c1	0.119 µM	22.6 µM	0.0503 µM
CN(CCCNc1ccnc2cc(Cl)ccc12)C(=O)COc1ccc(Cl)cc1	0.0592 µM	20.3 µM	0.0785 µM
CC[n+]1c(/C=C(C)/C=C2\Sc3ccccc3N2CCO)sc2ccccc21	> 1.25 µM	> 10 µM	1.64 µM
CCCCC(CC)C(=O)NCCCCNc1ccnc2cc(Cl)ccc12 (stereo not given)	0.297 µM	> 10.1 µM	< 0.0134 µM
CCOC(=O)C1=C(C)N=c2sc(=Cc3ccc(I)o3)c(=O)n2C1c1ccccc1Cl (stereo not given)	1.33 µM	> 5.49 µM	0.57 µM

Structure (SMILES)	EC50 [1]	CC50 [2]	EC50 [3]
O=S(=O)(Nc1ccc(F)cc1)N1CCCCCC1	> 12.5 µM	> 100 µM	1.36 µM
CCN(CC)S(=O)(=O)c1ccc(-c2csc(=Nc3cccc4ccccc34)n2C)cc1	0.0609 µM	> 10 µM	> 1.22 µM
O=C(CCl)Nc1ccc(N2CCCCC2)cc1	0.797 µM	41.2 µM	0.417 µM
Cc1c(C(=O)N2CCN(c3cccc(Cl)c3)CC2)sc2ncnc(N(C)c3ccccc3)c12	> 0.723 µM	> 10 µM	> 0.906 µM
N=c1c2c(n(Cc3ccccc3Cl)c3c1CCC3)CCCC2	0.222 µM	> 100 µM	0.174 µM
Cc1cc(Nc2cccc(C(F)(F)F)c2)nc(NCc2ccccc2)n1	0.178 µM	15.6 µM	0.553 µM
Cc1nc([P+](c2ccccc2)(c2ccccc2)c2ccccc2)c(N2CCCCC2)o1	0.761 µM	7.12 µM	0.967 µM
Cc1cc(Cl)c(S(=O)(=O)N2CCSCC2)cc1OCC(=O)NC1CCCCC1	0.186 µM	> 100 µM	0.153 µM
CN1C=CC=C/C1=C\C=C1\C=Nc2ccccc21	0.276 µM	> 10 µM	0.223 µM
CCOC(=O)c1c(C)[nH]c2c1cc(O)c1ccccc12	0.0986 µM	> 10 µM	0.126 µM
CCOC(=O)N1CCN(c2ccc(C(F)(F)F)cn2)CC1	> 12.5 µM	> 100 µM	7.18 µM
COc1ccc2nc(-c3ccccc3)cc(NCCN(C)C)c2c1	0.171 µM	> 10 µM	0.478 µM
C[C@H](Nc1cncc(-c2cccc(OC(F)(F)F)c2)n1)c1ccccc1	> 0.264 µM	> 10 µM	1.18 µM
CCOC(=O)c1sc(=S)n(-c2ccc(N(C)C)cc2)c1N	> 1.19 µM	> 10 µM	> 1.27 µM
S=C(NCc1ccco1)NC1CC2CCC(C1)N2Cc1ccccc1 (stereo not given)	0.865 µM	> 100 µM	2.24 µM
Cc1nc(C(C)N(C)Cc2c(C(=O)N3CCCCCCC3)nc3sccn23)c(C)s1 (stereo not given)	> 7.03 µM	> 100 µM	0.825 µM
COCCNC(=O)CN1C(=O)CC(C)(C)Sc2ccccc21	> 1.25 µM	> 10 µM	> 0.0198 µM
CCN1CCN(c2cc(C)c3cc(NC(=O)C=Cc4cccc(Cl)c4)ccc3n2)CC1	0.824 µM	61.4 µM	1.26 µM
CCOc1ccccc1CN1CCCC(C(=O)N2CCCCCC2)C1 (stereo not given)	4.4 µM	37.4 µM	1.42 µM
OC(CN1CCN(Cc2ccccc2)CC1)Cn1c2ccc(Br)cc2c2cc(Br)ccc21 (stereo not given)	0.296 µM	29 µM	0.0573 µM
COc1ccc(OC)c(CN2CCC3(CC2)CC3C(=O)NCCc2ccccc2OC)c1 (stereo not given)	> 3.17 µM	> 100 µM	1.19 µM
CCC(=O)NC(c1ccccc1Cl)c1cc(Cl)c2cccnc2c1O (stereo not given)	0.232 µM	35.4 µM	0.0736 µM
Cc1ccc2c(C)nc(Nc3nc(C)cc(-c4ccccc4)n3)nc2c1	0.975 µM	> 100 µM	0.569 µM
CCOc1ccc(OCc2nnc(S)n2N)cc1	> 1.25 µM	> 10 µM	> 0.752 µM

Structure (SMILES)	EC50 [1]	CC50 [2]	EC50 [3]
O=C(Nc1ccc(C2=NCCN2)cc1)c1cccc2c(C(=O)Nc3ccc(C4=NCCN4)cc3)cccc12	0.0839 µM	> 10 µM	0.397 µM
CCCCN(C)Cc1ccc2c(NC(=O)c3ccc(C)s3)c(C(=O)OC)sc2n1	0.542 µM	1.52 µM	0.461 µM
c1ccc(-c2cc(N3CCN(c4ccccn4)CC3)nc(-c3ccccn3)n2)nc1	0.0729 µM	3.03 µM	0.0767 µM
CCCCCN(C(=O)c1cccc(C(F)(F)F)c1)C(CC)c1nc2ccccc2c(=O)n1-c1ccccc1OC (stereo not given)	0.728 µM	> 10 µM	0.673 µM
COC(=O)[C@@H]1C[C@@H](NC(=O)c2ccccc2F)CN1CC(c1ccccc1)c1ccccc1	1.06 µM	> 10 µM	> 1.18 µM
CCNC(=O)C1CCN(c2cccc3c2C(=O)N(C2CCCCCCC2)C3=O)CC1	1.75 µM	> 100 µM	1.31 µM
COC(=O)c1c(-c2c(Cl)cccc2Cl)noc1/C=C/Nc1ccc(Cl)cc1	0.0135 µM	> 10 µM	< 0.00295 µM
CN(c1ccccc1)S(=O)(=O)c1ccc(C(=O)Nc2ccc(-c3nc4ccccc4[nH]3)cc2)cc1	0.788 µM	42.8 µM	1.04 µM
O=C(CCl)NCCCN(C(=O)Nc1ccc(Cl)c(Cl)c1)c1ccccc1	0.217 µM	> 0.931 µM	0.074 µM
COc1ccc2c(Cl)c(C(=O)Nc3cc(C)on3)sc2c1Cl	0.43 µM	> 100 µM	0.316 µM
COc1cc2nc(Nc3ccc(F)cc3)nc(N)c2cc1OC	0.117 µM	18.4 µM	0.139 µM
CCOC(=O)c1[nH]c2ccc(C)cc2c1N=NN(C)C	0.181 µM	26.3 µM	0.115 µM
COCCOC(=O)C1=C(C)NC2=C(C(=O)CC(c3ccc(OC)c(OC)c3)C2)C1c1ccccc1C (stereo not given)	0.11 µM	> 100 µM	0.0323 µM
COc1ccc(/C=C\c2cc[n+](C)cc2)cc1OC	1.11 µM	> 10 µM	> 1.25 µM
CC(C)CCN1C(=O)N(CCN(C)C)C(=O)C12CCN(Cc1ccc(O)cc1)CC2	0.74 µM	68.5 µM	0.123 µM
O=C(NCCc1ccccc1)c1cnc(NCCCn2ccnc2)nc1Nc1ccccc1	0.552 µM	> 10 µM	0.843 µM
O=[N+]([O-])c1cccc2c1nnn2C12CC3CC(CC(O)(C3)C1)C2	0.536 µM	> 100 µM	0.245 µM
CO/C(=C\C(N)=O)C(C)C(/C=C/c1csc(-c2csc(C(C)/C=C/C=C/C(C)C)n2)n1)OC (stereo not given)	1.24 µM	> 10 µM	0.0846 µM
CCC(c1nc2ccccc2c(=O)n1-c1cccc(C)c1)N(Cc1ccccc1)C(=O)Nc1c(C(C)C)cccc1C(C)C (stereo not given)	0.395 µM	> 100 µM	0.486 µM
O[C@@]1(c2cc3ccccc3s2)CN2CCC1CC2	0.177 µM	> 10 µM	0.101 µM
CCCc1c(C)nc2ccccc2c1O	0.63 µM	> 100 µM	0.429 µM
Clc1ccc2c(c1)CN(C1CCCCC1)CO2	2.29 µM	71 µM	0.2 µM
